{
  "source": "patent US8101386B2",
  "about": "“Escherichia coli strains which over-produce L-threonine and processes for the production of L-threonine by fermentation” (Archer Daniels Midland Company, priority 2000, dated 2012)",
  "key": {"E. coli strain 6-8": {"tested_on": "E. coli strain 6-8", "experiment": "CPCA resistance test: growth in minimal medium E with CPCA", "assay_type": "cell-based", "set-up": "unit not given here", "conditions": "24 hr, 36° C.", "protocol": "(§1) To test for CPCA resistance, each strain was cultivated in 20 ml of the seed medium SM (32.5 g/L glucose; 1 g/L MgSO4 7H2O; 24.36 g/L K2HPO4; 9.52 g/L KH2PO4; 5 (NH4)2SO4; 15 g/L yeast extract; pH 7.2) at 36° C. for 17 hr with shaking. The cells were harvested and washed with minimal medium E. The cell suspension was then inoculated into a sterilized tube containing 3 ml of minimal medium E and 0, 0.1, 0.5, or 1 mM CPCA. After 24 hr cultivation as 36° C. with shaking, growth was determined by measuring the optical density at 660 nm. The results are shown below in Table 1 relative to growth in the absence of CPCA."}, "E. coli strain G909": {"tested_on": "E. coli strain G909", "experiment": "CPCA resistance test: growth in minimal medium E with CPCA", "assay_type": "cell-based", "conditions": "24 hr, 36° C.", "protocol": "as §1"}, "E. coli": {"tested_on": "E. coli", "conditions": "G. Nass et al. 1969; cited from earlier work"}, "threonyl tRNA-synthetase": {"biological_target": "threonyl tRNA-synthetase (Escherichia coli, UniProt P0A8M3)", "sequence (P0A8M3 whole entry)": "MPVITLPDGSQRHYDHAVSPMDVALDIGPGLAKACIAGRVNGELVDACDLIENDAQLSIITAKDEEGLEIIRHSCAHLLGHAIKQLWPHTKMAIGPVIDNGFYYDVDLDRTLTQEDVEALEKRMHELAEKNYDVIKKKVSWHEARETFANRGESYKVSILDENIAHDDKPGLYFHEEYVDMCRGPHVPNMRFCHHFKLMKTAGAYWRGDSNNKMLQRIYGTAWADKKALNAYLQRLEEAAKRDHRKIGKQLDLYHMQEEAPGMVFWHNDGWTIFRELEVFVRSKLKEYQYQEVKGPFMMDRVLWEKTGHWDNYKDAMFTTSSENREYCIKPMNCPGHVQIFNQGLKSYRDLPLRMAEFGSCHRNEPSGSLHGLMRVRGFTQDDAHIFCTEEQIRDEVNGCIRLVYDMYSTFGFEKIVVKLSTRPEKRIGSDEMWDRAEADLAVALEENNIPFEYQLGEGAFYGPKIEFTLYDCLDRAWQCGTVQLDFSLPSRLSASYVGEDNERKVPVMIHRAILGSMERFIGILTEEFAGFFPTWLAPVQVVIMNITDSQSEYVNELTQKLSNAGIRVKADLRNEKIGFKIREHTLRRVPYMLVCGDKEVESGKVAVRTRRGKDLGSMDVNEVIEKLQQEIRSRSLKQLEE", "conditions": "G. Nass et al. 1969; cited from earlier work"}},
  "data": [
    {"smiles": "O=C(O)C1CCCC1", "note": "[CPCA, cyclopentanecarboxylic acid]", "values": [
      {"measurement": "growth (optical density at 660 nm) relative to growth in the absence of CPCA", "setting": "E. coli strain 6-8; 0.1 mM CPCA", "value": 134.5},
      {"measurement": "growth (optical density at 660 nm) relative to growth in the absence of CPCA", "setting": "E. coli strain 6-8; 0.5 mM CPCA", "value": 141.0},
      {"measurement": "growth (optical density at 660 nm) relative to growth in the absence of CPCA", "setting": "E. coli strain 6-8; 1 mM CPCA", "value": 184.5},
      {"measurement": "growth (optical density at 660 nm) relative to growth in the absence of CPCA", "setting": "E. coli strain G909; 0.1 mM CPCA", "value": 24.2},
      {"measurement": "growth (optical density at 660 nm) relative to growth in the absence of CPCA", "setting": "E. coli strain G909; 0.5 mM CPCA", "value": 2.9},
      {"measurement": "growth (optical density at 660 nm) relative to growth in the absence of CPCA", "setting": "E. coli strain G909; 1 mM CPCA", "value": 0.9}
    ]},
    {"smiles": "C[C@@H]1C[C@H](C)C[C@H](C)[C@@H](O)CC(=O)O[C@H]([C@@H]2CCC[C@H]2C(=O)O)C/C=C/C=C(/C#N)[C@H](O)[C@@H](C)C1", "note": "[borrelidin]", "values": [
      {"measurement": "effect on growth of E. coli", "setting": "E. coli", "value": "inhibit the growth"},
      {"measurement": "effect on enzymatic activity of threonyl tRNA-synthetase", "setting": "threonyl tRNA-synthetase", "value": "reduce the enzymatic activity"}
    ]}
  ]
}
